Structures can show the parent of a compound that is named as a salt.
Tests used:
M4 muscarinic receptor = biological target: T1, M4 muscarinic receptor (Homo sapiens, UniProt P08173); assay: Functional mobilization of intracellular calcium (FLIPR), M4-CHO cells; assay type: cell-based; settings: for Emax: 100% efficacy is the maximum response obtained using Carbachol as a control; for M4 Activity: M4-CHO cells, FLIPR calcium mobilization
T1 construct: expressed in transfected cells; host or cells: CHO (M4-CHO)
T1 sequence (P08173 1-479): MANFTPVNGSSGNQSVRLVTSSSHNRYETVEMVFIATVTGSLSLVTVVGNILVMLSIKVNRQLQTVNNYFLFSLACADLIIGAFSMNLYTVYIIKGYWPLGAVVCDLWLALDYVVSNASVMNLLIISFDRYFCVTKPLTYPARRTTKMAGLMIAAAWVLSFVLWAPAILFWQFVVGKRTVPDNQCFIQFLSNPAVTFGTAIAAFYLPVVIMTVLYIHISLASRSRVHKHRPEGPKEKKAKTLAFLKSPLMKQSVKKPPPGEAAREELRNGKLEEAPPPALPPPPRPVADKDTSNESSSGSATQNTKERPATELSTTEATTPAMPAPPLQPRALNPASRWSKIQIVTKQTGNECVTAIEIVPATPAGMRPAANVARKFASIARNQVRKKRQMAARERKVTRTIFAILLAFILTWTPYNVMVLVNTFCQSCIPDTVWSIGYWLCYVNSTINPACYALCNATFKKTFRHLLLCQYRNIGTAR
Procedure, shortened: (§1)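 CHO cells expressing M1 or M4, loaded with Fluo-3 AM or Calcium 3 dye with 1 mM probenecid, 0.5% DMSO final. Agonist mode: compound added directly; antagonist mode: 15 min pre-incubation (or co-application) before carbachol at EC80. Fluorescence recorded 60 s on FLIPR.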

M1 muscarinic receptor = biological target: T2, M1 muscarinic receptor (Homo sapiens, UniProt P11229); assay: Functional mobilization of intracellular calcium (FLIPR), M1-CHO cells; assay type: cell-based; settings: for Emax: 100% efficacy is the maximum response obtained using Carbachol as a control; for M1 Activity: M1-CHO cells, FLIPR calcium mobilization
T2 construct: expressed in transfected cells; host or cells: CHO (M1-CHO)
T2 sequence (P11229 1-460): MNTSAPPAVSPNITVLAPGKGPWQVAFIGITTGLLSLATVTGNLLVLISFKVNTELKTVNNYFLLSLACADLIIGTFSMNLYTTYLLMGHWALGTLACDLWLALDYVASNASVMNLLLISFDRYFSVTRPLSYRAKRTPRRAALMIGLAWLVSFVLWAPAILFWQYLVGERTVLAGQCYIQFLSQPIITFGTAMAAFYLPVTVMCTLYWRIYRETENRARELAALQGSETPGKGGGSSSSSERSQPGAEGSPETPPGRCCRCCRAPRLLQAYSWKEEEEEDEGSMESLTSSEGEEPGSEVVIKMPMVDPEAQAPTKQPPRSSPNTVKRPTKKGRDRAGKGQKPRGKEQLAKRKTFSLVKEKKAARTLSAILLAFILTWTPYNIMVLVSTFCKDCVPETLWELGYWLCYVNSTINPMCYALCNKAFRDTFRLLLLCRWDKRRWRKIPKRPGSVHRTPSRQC
Procedure, shortened: as §1

Structure (SMILES)	Emax (M4 muscarinic receptor)	M4 Activity (M4 muscarinic receptor)	Emax (M1 muscarinic receptor)	M1 Activity (M1 muscarinic receptor)
CCCS(=O)(=O)N1Cc2ccccc2C2(CCN(C3CC4CCC(C3)N4C(=O)OC3CCC3)CC2)C1 (stereo not shown) [compound 119]	25 to 100%	+++ (activity was measured to be less than 1.0 μM)	25 to 100%	+++ (activity was measured to be less than 1.0 μM)
CC(=O)N1Cc2ccccc2C2(CCN(CC3CCN(C(=O)O[C@@H]4CCOC4)CC3)CC2)C1 [compound 45]	< 25%	+ (activity was measured to be greater than 5.0 μM)	< 25%	+ (activity was measured to be greater than 5.0 μM)
CCCOC(=O)N1CCC(N2CCC3(CC2)CN(C(C)=O)Cc2ccccc23)CC1 [compound 129, Propyl 4-(2-acetyl-2,3-dihydro-1H-spiro[isoquinoline-4,4′-piperidine]-1′-yl)piperidine-1-carboxylate hydrochloride]	25 to 100%	+++ (activity was measured to be less than 1.0 μM)	25 to 100%	+++ (activity was measured to be less than 1.0 μM)
O=C1NC2(CCN(CCC3CCSCC3)CC2)c2ccccc21 [compound 134]	< 25%	+ (activity was measured to be greater than 5.0 μM)	< 25%	+ (activity was measured to be greater than 5.0 μM)
CCOC(=O)N1CCC(CN2CCC3(CC2)CN(C(=O)Nc2c(C)noc2C)Cc2ccccc23)CC1 [compound 171]	25 to 100%	+++ (activity was measured to be less than 1.0 μM)	25 to 100%	+++ (activity was measured to be less than 1.0 μM)
CCOC(=O)N1CCC(CN2CCC3(CC2)CN(C(=O)Oc2ccc(F)cc2)Cc2ccccc23)CC1 [compound 72]	25 to 100%	+++ (activity was measured to be less than 1.0 μM)	25 to 100%	+++ (activity was measured to be less than 1.0 μM)
CCOC(=O)N1CCC(N2CCC3(CC2)CN(C(=O)N(C)C)Cc2ccccc23)CC1 [compound 204]	25 to 100%	+++ (activity was measured to be less than 1.0 μM)	25 to 100%	+++ (activity was measured to be less than 1.0 μM)
O=C1NC2(CCN(CC3CCCCC3)CC2)c2ccccc21 [compound 54]	25 to 100%	+ (activity was measured to be greater than 5.0 μM)	< 25%	+ (activity was measured to be greater than 5.0 μM)
COC(=O)N1C2CCC1CC(N1CCC3(CC1)CN(C(C)=O)Cc1ccccc13)C2 (stereo not shown) [compound 140]	25 to 100%	+++ (activity was measured to be less than 1.0 μM)	25 to 100%	+++ (activity was measured to be less than 1.0 μM)
CCOC(=O)N1CCC(CN2CCC3(CC2)CN(C(=O)OCCOC)Cc2ccccc23)CC1 [compound 22]	25 to 100%	+++ (activity was measured to be less than 1.0 μM)	25 to 100%	+++ (activity was measured to be less than 1.0 μM)
CC(=O)N1Cc2ccccc2C2(CCN(Cc3ccccc3F)CC2)C1 [compound 199]	25 to 100%	+ (activity was measured to be greater than 5.0 μM)	< 25%	+ (activity was measured to be greater than 5.0 μM)
CCOC(=O)N1CCC(N2CCC3(CC2)CN(C(C)=O)Cc2ccccc23)CC1 [compound 286]	25 to 100%	+++ (activity was measured to be less than 1.0 μM)	25 to 100%	+++ (activity was measured to be less than 1.0 μM)
COCCOC(=O)N1Cc2ccccc2C2(CCN(C3CC4CCC(C3)N4C(=O)OC(C)C)CC2)C1 (stereo not shown) [compound 157]	25 to 100%	+++ (activity was measured to be less than 1.0 μM)	25 to 100%	+++ (activity was measured to be less than 1.0 μM)
CCOC(=O)N1CCC(CN2CCC3(CC2)CN(C(=O)C(C)C)Cc2ccccc23)CC1 [compound 270]	25 to 100%	+++ (activity was measured to be less than 1.0 μM)	25 to 100%	+++ (activity was measured to be less than 1.0 μM)
COc1cccc(CN2CCC3(CC2)CN(C(C)=O)Cc2ccccc23)c1 [compound 121]	< 25%	+ (activity was measured to be greater than 5.0 μM)	< 25%	+ (activity was measured to be greater than 5.0 μM)
CC(=O)N1Cc2ccccc2C2(CCN(Cc3cccc(F)c3)CC2)C1 [compound 247]	< 25%	+ (activity was measured to be greater than 5.0 μM)	< 25%	+ (activity was measured to be greater than 5.0 μM)
CCOC(=O)N1CCC(N2CCC3(CC2)CN(C(=O)NC(C)(C)C)Cc2ccccc23)CC1 [compound 53]	25 to 100%	+++ (activity was measured to be less than 1.0 μM)	25 to 100%	+++ (activity was measured to be less than 1.0 μM)
CC(=O)c1ccc(CN2CCC3(CC2)CN(C(C)=O)Cc2ccccc23)cc1 [compound 144]	< 25%	+ (activity was measured to be greater than 5.0 μM)	25 to 100%	+ (activity was measured to be greater than 5.0 μM)
CCCOC(=O)N1C2CCC1CC(N1CCC3(CC1)CN(C(C)=O)Cc1ccccc13)C2 (stereo not shown) [compound 357]	25 to 100%	+++ (activity was measured to be less than 1.0 μM)	25 to 100%	+++ (activity was measured to be less than 1.0 μM)
CC(=O)N1Cc2ccccc2C2(CCN(C3CCC4(CC3)OCCO4)CC2)C1 [compound 93]	< 25%	+ (activity was measured to be greater than 5.0 μM)	25 to 100%	+ (activity was measured to be greater than 5.0 μM)
CC(C)OC(=O)N1C2CCC1CC(N1CCC3(CC1)CN(S(C)(=O)=O)Cc1ccccc13)C2 (stereo not shown) [compound 154]	25 to 100%	+++ (activity was measured to be less than 1.0 μM)	25 to 100%	+++ (activity was measured to be less than 1.0 μM)
CC(=O)N1Cc2ccccc2C2(CCN(CC3CCCCC3)CC2)C1 [compound 35]	< 25%	++ (activity was measured to be from 1.0 μM to 5.0 μM)	< 25%	+ (activity was measured to be greater than 5.0 μM)
O=C1NC2(CCN(CC3CC4C=CC3C4)CC2)c2ccccc21 (stereo not shown) [compound 267, 1′-(bicyclo[2.2.1]hept-5-en-2-ylmethyl)spiro[isoindoline-1,4′-piperidin]-3-one]	25 to 100%	++ (activity was measured to be from 1.0 μM to 5.0 μM)	25 to 100%	++ (activity was measured to be from 1.0 μM to 5.0 μM)
CCOC(=O)N1C2CCC1CC(N1CCC3(CC1)CN(S(=O)(=O)c1c(C)noc1C)Cc1ccccc13)C2 (stereo not shown) [compound 246]	> 100%	+++ (activity was measured to be less than 1.0 μM)	25 to 100%	+++ (activity was measured to be less than 1.0 μM)
CCOC(=O)N1CCC(CN2CCC3(CC2)CN(C(=O)NC2CCCC2)Cc2ccccc23)CC1 [compound 127]	25 to 100%	+++ (activity was measured to be less than 1.0 μM)	25 to 100%	+++ (activity was measured to be less than 1.0 μM)
Cc1cc(C(=O)N2Cc3ccccc3C3(CCN(C4CC5CCC(C4)N5C(=O)OC4CCC4)CC3)C2)nn1C (stereo not shown) [compound 223]	25 to 100%	+++ (activity was measured to be less than 1.0 μM)	25 to 100%	+++ (activity was measured to be less than 1.0 μM)
CCOC(=O)N1C2CCC1CC(N1CCC3(CC1)CN(c1cccc(F)c1)Cc1ccccc13)C2 (stereo not shown) [compound 159]	25 to 100%	+++ (activity was measured to be less than 1.0 μM)	> 100%	+++ (activity was measured to be less than 1.0 μM)
CCCNC(=O)N1Cc2ccccc2C2(CCN(C3CCN(C(=O)OCC)CC3)CC2)C1 [compound 296]	25 to 100%	+++ (activity was measured to be less than 1.0 μM)	25 to 100%	+++ (activity was measured to be less than 1.0 μM)

Reference: patent publication US7863449B2, “Modulators of muscarinic receptors” (Vertex Pharmaceuticals Incorporated, priority 2004, dated 2011)
